From patent publication US7642265B2, “Benzimidazoles and analogs thereof as antivirals” (Isis Pharmaceuticals, Inc., priority 2002, dated 2010)
Like-named read-outs stand apart in the source and are kept apart here.

Tests used:
[1] = test system: stem IIa region of the HCV IRES (5′-UTR of HCV RNA); test: Mass spectrometry based binding assay; conditions: for binding percentage of ligand to target: Table 1, ligand 50 μM, IIa target 2.5 μM
[2] = Single dose in vivo pharmacokinetic study; set-up: species or system rats; conditions: plasma, rat, single 3.0 mg/kg IV dose, mean; for AUC: iv, 3 mg/kg
Procedure: A single dose pharmacokinetic study was performed to investigate the pharmacokinetics of representative compounds. Of particular interest was the ability of the compounds to accumulate in liver, which is the target tissue for HCV chemotherapy as it is the primary reservoir of virus. 3-4 rats per group were administered a single dose (3 mg/kg intravenously, IV or 6 mg/kg orally, PO). Blood samples were taken at 0.25, 0.5, 1, 2, 3, 4, 6, and 8 h timepoints, and pharmacokinetic parameters calculated. Both representative compounds were rapidly distributed to tissues, as evidenced by the high clearance rates and volumes of distribution, and low levels of excretion (ca 10% of total drug in urine and feces at 8 h). Major tissues were examined for presence of drug. […] The tissue accumulation for the IV dose is shown in FIG. 1, as a function of concentration and percent of total administered dose.

CN(C)CCCn1c(N)nc2ccccc21 [drawing 82]
MS target selectivity ([1]; Table 3): ~3

CN(C)CCCn1c(N)nc2ccccc21 [drawing 73]
binding percentage of ligand to target [1]: 56% binding

Nc1nc2ccccc2n1CCOc1ccccc1
binding percentage of ligand to target [1]: 6%

CN(C)CCCOc1ccc2nc(N)n(CCCN(C)C)c2c1 [drawing 80]
MS target selectivity ([1]; Table 2): ~15

CN(C)CCCOc1ccc2nc(N)[nH]c2c1
MS target selectivity ([1]; Table 3): ~2

CCN(CC)CCn1c(N)nc2ccccc21
binding percentage of ligand to target [1]: 15%

Nc1nc2ccccc2n1CCCN1CCCC1
binding percentage of ligand to target [1]: 15%

COc1ccc2nc(N)n(CCCN(C)C)c2c1
MS target selectivity ([1]; Table 2): ~10

CN(C)CCn1c(N)nc2ccccc21
binding percentage of ligand to target [1]: 11%

CN(C)CCCn1c(N)nc2ccc(OCCCN(C)Cc3ccco3)cc21 [IBIS00405678]
MRT [2]: 3.1 h | half-life [2]: 37.5 h | AUC ([2]; read-out: AUC): 311 ng·h/mL | AUC ([2]; read-out: AUC Extrap): 1930 ng·h/mL

CN(C)CC1CNc2nc3ccc(OCCCN(C)Cc4ccccn4)cc3n2C1 (stereo not shown) [IBIS00528637]
MRT [2]: 2 h | half-life [2]: 14 h | AUC ([2]; read-out: AUC): 165 ng·h/mL | AUC ([2]; read-out: AUC Extrap): 320 ng·h/mL

CN(C)CCCOc1ccc2nc(N)n(CCCN(C)C)c2c1 [drawing 81]
MS target selectivity ([1]; Table 3): ~15

CN(C)CCCn1c(N)nc2ccccc21 [drawing 78]
MS target selectivity ([1]; Table 2): ~3
